# Data: US20230136600A1, “Method and device for screening antigen epitope polypeptide” (priority 2020, published 2023)
# Experiments:
# Balb/c mice [1] = test: Detection of peptide immunogenicity by polypeptide chip: vaccine peptide-specific signal sequencing (timing-sequence response, Fisher exact test); type: in vivo; settings: Embodiment IV; 7-peptide mixed solution with adjuvant: Mix 1 AddaVax, 2 Imject Alumn, 3 Alhydrogel, 4 Adju-Phos, 5 MA103A, 6 MA103B
# Balb/c mice [2] = test: Polypeptide chip-based vaccine immunogenicity scoring system; type: in vivo; parameters: key to A2: whether the 95 percentile of the last sampling is increased compared with the end point: Y = rise; N = no rise; settings: for A: 95 percentile grouping number score / B: Mouse performance score: total score = 5; for C1: #A timing-sequence response peptide fragment set / C2: #B vaccine specificity peptide fragment set / C3: Intersection of A and B / C4: Percentage of the intersection in set B / C: Timing-sequence response and specificity score: value of the whole mix
# [3] = Embodiment III, polypeptide-KLH
# [4] = Embodiment III, polypeptide-KLH, Mix1-10
# [5] = Embodiment III, polypeptide-KLH, A*3 + B*2 + C*1
# [6] = adjuvant AddaVax, 7 peptides co-immunized in mice
# [7] = adjuvant Adju-Phos, 7 peptides co-immunized in mice
# [8] = adjuvant Alhydrogel, 7 peptides co-immunized in mice
# [9] = adjuvant Imjet Alumn, 7 peptides co-immunized in mice
# [10] = adjuvant MA103A, 7 peptides co-immunized in mice
# [11] = adjuvant MA103B, 7 peptides co-immunized in mice
substance,measurement,setting,value
1 (YTNDKACPL; SARS-CoV-2) [compound 1],#A timing-sequence response peptide fragment set,Balb/c mice [1],237
same,#B vaccine specificity peptide fragment set,Balb/c mice [1],1244
same,Intersection of A and B,Balb/c mice [1],0
same,Mode I,Balb/c mice [1],87
same,Mode II,Balb/c mice [1],157
2 (RGGSYTNDKAC; SARS-CoV-2) [compound 2],#A timing-sequence response peptide fragment set,Balb/c mice [1],100
same,#B vaccine specificity peptide fragment set,Balb/c mice [1],1244
same,Intersection of A and B,Balb/c mice [1],3
same,Mode I,Balb/c mice [1],74
same,Mode II,Balb/c mice [1],31
3 (SVYAWNRKR; SARS-CoV-2) [compound 3],#A timing-sequence response peptide fragment set,Balb/c mice [1],123
same,#B vaccine specificity peptide fragment set,Balb/c mice [1],1244
same,Intersection of A and B,Balb/c mice [1],2
same,Mode I,Balb/c mice [1],73
same,Mode II,Balb/c mice [1],53
SVYAWNRKR (SARS-CoV-2) [SEQ ID NO:3],A2: whether the 95 percentile of the last sampling is increased compared with the end point,"Balb/c mice [2]; Embodiment II, Combination 1",N
same,B1: D 0-D 14 95 percentile rise in the number of mice,"Balb/c mice [2]; Embodiment II, Combination 1",5
same,B2: D 0-D 21 95 percentile rise in the number of mice,"Balb/c mice [2]; Embodiment II, Combination 1",5
same,B3: D 14-D 21 95 percentile rise in the number of mice,"Balb/c mice [2]; Embodiment II, Combination 1",1
same,B4: D 21-D 28 95 percentile rise in the number of mice,"Balb/c mice [2]; Embodiment II, Combination 1",2
same,Total single peptide,"Balb/c mice [2]; Embodiment II, Combination 1, A*3 + B*2 + C*1",10.7
same,A: 95 percentile grouping number score,"Balb/c mice [2]; Embodiment II, Combination 1",1
same,B: Mouse performance score,"Balb/c mice [2]; Embodiment II, Combination 1",3.6
same,A1: difference between a highest median and a D 0 median (95 percentile),"Balb/c mice [2]; Embodiment II, mice immunized with Combination 1",0.05
same,B1: D 0-D 14 95 percentile rise in the number of mice,Balb/c mice [2]; [3],3
same,B2: D 0-D 21 95 percentile rise in the number of mice,Balb/c mice [2]; [3],3
same,B3: D 14-D 21 95 percentile rise in the number of mice,Balb/c mice [2]; [3],2
same,B4: D 21-D 28 95 percentile rise in the number of mice,Balb/c mice [2]; [3],1
same,A1: difference between a highest median and a D 0 median (95 percentile),Balb/c mice [2]; [4],0.13
same,A2: whether the 95 percentile of the last sampling is increased compared with the end point,Balb/c mice [2]; [4],N
same,Total single peptide,Balb/c mice [2]; [5],18.7
same,A: 95 percentile grouping number score,Balb/c mice [2]; [3],4.5
same,B: Mouse performance score,Balb/c mice [2]; [3],2.1
same,C1: #A timing-sequence response peptide fragment set,Balb/c mice [2]; [3],823
same,C2: #B vaccine specificity peptide fragment set,Balb/c mice [2]; [3],398
same,C3: Intersection of A and B,Balb/c mice [2]; [3],7
same,C4: Percentage of the intersection in set B,Balb/c mice [2]; [3],1.759
same,C: Timing-sequence response and specificity score,Balb/c mice [2]; [3],1
same,1) 95 percentile grouping number A,Balb/c mice [2]; [6],4
same,1) 95 percentile grouping number A1,Balb/c mice [2]; [6],0.05
same,2) Mouse performance B,Balb/c mice [2]; [6],3.5
same,2) Mouse performance B1,Balb/c mice [2]; [6],3
same,2) Mouse performance B2,Balb/c mice [2]; [6],5
same,2) Mouse performance B3,Balb/c mice [2]; [6],4
same,3) Timing-sequence response and specificity C,Balb/c mice [2]; [6],0
same,3) Timing-sequence response and specificity C1,Balb/c mice [2]; [6],237
same,3) Timing-sequence response and specificity C2,Balb/c mice [2]; [6],1244
same,3) Timing-sequence response and specificity C3,Balb/c mice [2]; [6],0
same,3) Timing-sequence response and specificity C4,Balb/c mice [2]; [6],0.000
same,Total single peptide,Balb/c mice [2]; [6],19
same,1) 95 percentile grouping number A,Balb/c mice [2]; [7],3.5
same,1) 95 percentile grouping number A1,Balb/c mice [2]; [7],0.05
same,2) Mouse performance B,Balb/c mice [2]; [7],3
same,2) Mouse performance B1,Balb/c mice [2]; [7],4
same,2) Mouse performance B2,Balb/c mice [2]; [7],5
same,2) Mouse performance B3,Balb/c mice [2]; [7],2
same,3) Timing-sequence response and specificity C,Balb/c mice [2]; [7],0
same,3) Timing-sequence response and specificity C1,Balb/c mice [2]; [7],203
same,3) Timing-sequence response and specificity C2,Balb/c mice [2]; [7],1244
same,3) Timing-sequence response and specificity C3,Balb/c mice [2]; [7],0
same,3) Timing-sequence response and specificity C4,Balb/c mice [2]; [7],0.000
same,Total single peptide,Balb/c mice [2]; [7],16.5
same,1) 95 percentile grouping number A,Balb/c mice [2]; [8],1
same,1) 95 percentile grouping number A1,Balb/c mice [2]; [8],0.012
same,2) Mouse performance B,Balb/c mice [2]; [8],0.8
same,2) Mouse performance B1,Balb/c mice [2]; [8],2
same,2) Mouse performance B2,Balb/c mice [2]; [8],1
same,2) Mouse performance B3,Balb/c mice [2]; [8],0
same,3) Timing-sequence response and specificity C,Balb/c mice [2]; [8],1
same,3) Timing-sequence response and specificity C1,Balb/c mice [2]; [8],123
same,3) Timing-sequence response and specificity C2,Balb/c mice [2]; [8],1244
same,3) Timing-sequence response and specificity C3,Balb/c mice [2]; [8],2
same,3) Timing-sequence response and specificity C4,Balb/c mice [2]; [8],0.161
same,Total single peptide,Balb/c mice [2]; [8],5.1
same,1) 95 percentile grouping number A,Balb/c mice [2]; [9],5
same,1) 95 percentile grouping number A1,Balb/c mice [2]; [9],0.09
same,2) Mouse performance B,Balb/c mice [2]; [9],2.7
same,2) Mouse performance B1,Balb/c mice [2]; [9],5
same,2) Mouse performance B2,Balb/c mice [2]; [9],4
same,2) Mouse performance B3,Balb/c mice [2]; [9],1
same,3) Timing-sequence response and specificity C,Balb/c mice [2]; [9],1
same,3) Timing-sequence response and specificity C1,Balb/c mice [2]; [9],100
same,3) Timing-sequence response and specificity C2,Balb/c mice [2]; [9],1244
same,3) Timing-sequence response and specificity C3,Balb/c mice [2]; [9],3
same,3) Timing-sequence response and specificity C4,Balb/c mice [2]; [9],0.241
same,Total single peptide,Balb/c mice [2]; [9],20.9
same,1) 95 percentile grouping number A,Balb/c mice [2]; [10],5
same,1) 95 percentile grouping number A1,Balb/c mice [2]; [10],0.08
same,2) Mouse performance B,Balb/c mice [2]; [10],2.9
same,2) Mouse performance B1,Balb/c mice [2]; [10],5
same,2) Mouse performance B2,Balb/c mice [2]; [10],5
same,2) Mouse performance B3,Balb/c mice [2]; [10],1
same,3) Timing-sequence response and specificity C,Balb/c mice [2]; [10],1
same,3) Timing-sequence response and specificity C1,Balb/c mice [2]; [10],260
same,3) Timing-sequence response and specificity C2,Balb/c mice [2]; [10],1244
same,3) Timing-sequence response and specificity C3,Balb/c mice [2]; [10],3
same,3) Timing-sequence response and specificity C4,Balb/c mice [2]; [10],0.241
same,Total single peptide,Balb/c mice [2]; [10],21.3
same,1) 95 percentile grouping number A,Balb/c mice [2]; [11],3.5
same,1) 95 percentile grouping number A1,Balb/c mice [2]; [11],0.05
same,2) Mouse performance B,Balb/c mice [2]; [11],2.9
same,2) Mouse performance B1,Balb/c mice [2]; [11],5
same,2) Mouse performance B2,Balb/c mice [2]; [11],5
same,2) Mouse performance B3,Balb/c mice [2]; [11],1
same,3) Timing-sequence response and specificity C,Balb/c mice [2]; [11],0
same,3) Timing-sequence response and specificity C1,Balb/c mice [2]; [11],153
same,3) Timing-sequence response and specificity C2,Balb/c mice [2]; [11],1244
same,3) Timing-sequence response and specificity C3,Balb/c mice [2]; [11],0
same,3) Timing-sequence response and specificity C4,Balb/c mice [2]; [11],0.000
same,Total single peptide,Balb/c mice [2]; [11],16.3
VNKGEDIQLLKS [SEQ ID NO:27],B1: D 0-D 14 95 percentile rise in the number of mice,Balb/c mice [2]; [3],3
same,B2: D 0-D 21 95 percentile rise in the number of mice,Balb/c mice [2]; [3],3
same,B3: D 14-D 21 95 percentile rise in the number of mice,Balb/c mice [2]; [3],1
same,B4: D 21-D 28 95 percentile rise in the number of mice,Balb/c mice [2]; [3],0
same,A1: difference between a highest median and a D 0 median (95 percentile),Balb/c mice [2]; [4],0.14
same,A2: whether the 95 percentile of the last sampling is increased compared with the end point,Balb/c mice [2]; [4],N
same,Total single peptide,Balb/c mice [2]; [5],17.4
same,A: 95 percentile grouping number score,Balb/c mice [2]; [3],4.5
same,B: Mouse performance score,Balb/c mice [2]; [3],1.7
same,C1: #A timing-sequence response peptide fragment set,Balb/c mice [2]; [3],133
same,C2: #B vaccine specificity peptide fragment set,Balb/c mice [2]; [3],431
same,C3: Intersection of A and B,Balb/c mice [2]; [3],1
same,C4: Percentage of the intersection in set B,Balb/c mice [2]; [3],0.232
same,C: Timing-sequence response and specificity score,Balb/c mice [2]; [3],0.5
YEGNSPFH [SEQ ID NO:18],B1: D 0-D 14 95 percentile rise in the number of mice,Balb/c mice [2]; [3],3
same,B2: D 0-D 21 95 percentile rise in the number of mice,Balb/c mice [2]; [3],2
same,B3: D 14-D 21 95 percentile rise in the number of mice,Balb/c mice [2]; [3],0
same,B4: D 21-D 28 95 percentile rise in the number of mice,Balb/c mice [2]; [3],2
same,A1: difference between a highest median and a D 0 median (95 percentile),Balb/c mice [2]; [4],0.06
same,A2: whether the 95 percentile of the last sampling is increased compared with the end point,Balb/c mice [2]; [4],Y
same,Total single peptide,Balb/c mice [2]; [5],9.9
same,A: 95 percentile grouping number score,Balb/c mice [2]; [3],2
same,B: Mouse performance score,Balb/c mice [2]; [3],1.7
same,C1: #A timing-sequence response peptide fragment set,Balb/c mice [2]; [3],1212
same,C2: #B vaccine specificity peptide fragment set,Balb/c mice [2]; [3],389
same,C3: Intersection of A and B,Balb/c mice [2]; [3],1
same,C4: Percentage of the intersection in set B,Balb/c mice [2]; [3],0.257
same,C: Timing-sequence response and specificity score,Balb/c mice [2]; [3],0.5
YTNDKACPL (SARS-CoV-2) [SEQ ID NO:1],B1: D 0-D 14 95 percentile rise in the number of mice,Balb/c mice [2]; [3],2
same,B2: D 0-D 21 95 percentile rise in the number of mice,Balb/c mice [2]; [3],2
same,B3: D 14-D 21 95 percentile rise in the number of mice,Balb/c mice [2]; [3],1
same,B4: D 21-D 28 95 percentile rise in the number of mice,Balb/c mice [2]; [3],1
same,A1: difference between a highest median and a D 0 median (95 percentile),Balb/c mice [2]; [4],0.11
same,A2: whether the 95 percentile of the last sampling is increased compared with the end point,Balb/c mice [2]; [4],Y
same,Total single peptide,Balb/c mice [2]; [5],18.3
same,A: 95 percentile grouping number score,Balb/c mice [2]; [3],5
same,B: Mouse performance score,Balb/c mice [2]; [3],1.4
same,C1: #A timing-sequence response peptide fragment set,Balb/c mice [2]; [3],257
same,C2: #B vaccine specificity peptide fragment set,Balb/c mice [2]; [3],682
same,C3: Intersection of A and B,Balb/c mice [2]; [3],3
same,C4: Percentage of the intersection in set B,Balb/c mice [2]; [3],0.440
same,C: Timing-sequence response and specificity score,Balb/c mice [2]; [3],0.5
YYKKDNSYF (SARS-CoV-2) [SEQ ID NO:25],B1: D 0-D 14 95 percentile rise in the number of mice,Balb/c mice [2]; [3],2
same,B2: D 0-D 21 95 percentile rise in the number of mice,Balb/c mice [2]; [3],3
same,B3: D 14-D 21 95 percentile rise in the number of mice,Balb/c mice [2]; [3],2
same,B4: D 21-D 28 95 percentile rise in the number of mice,Balb/c mice [2]; [3],1
same,A1: difference between a highest median and a D 0 median (95 percentile),Balb/c mice [2]; [4],0.06
same,A2: whether the 95 percentile of the last sampling is increased compared with the end point,Balb/c mice [2]; [4],N
same,Total single peptide,Balb/c mice [2]; [5],9.1
same,A: 95 percentile grouping number score,Balb/c mice [2]; [3],1.5
same,B: Mouse performance score,Balb/c mice [2]; [3],1.8
same,C1: #A timing-sequence response peptide fragment set,Balb/c mice [2]; [3],823
same,C2: #B vaccine specificity peptide fragment set,Balb/c mice [2]; [3],398
same,C3: Intersection of A and B,Balb/c mice [2]; [3],7
same,C4: Percentage of the intersection in set B,Balb/c mice [2]; [3],1.759
same,C: Timing-sequence response and specificity score,Balb/c mice [2]; [3],1
